Data reported in PubChem BioAssay AID256 (DTP/NCI, 2004).
Several values for one entry are separate records, joined by “and”; a condition that tells them apart may be missing. Equal values may be shown once. Toxic doses and inconclusive results are not listed.

Test system: CD2F1 mice, L1210 leukemia ip, survival T/C
Experiment: NCI In Vivo Anticancer Drug Screen. Data for tumor model L1210 Leukemia (intraperitoneal) in CD2F1 (CDF1) mice
Details: higher = longer survival
Outline: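 Mice carrying a transplanted tumor received test compound or vehicle alone. The value is the measurement in the treated group divided by that in the vehicle-treated control group.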

[1] = endpoint: mean survival time, dose: 50.0 mg/kg/injection, schedule: Q01DX009 (ip), vehicle: saline with Tween-80
[2] = endpoint: mean survival time, dose: 100.0 mg/kg/injection, schedule: Q01DX009 (ip), vehicle: saline with Tween-80
[3] = endpoint: mean survival time, dose: 200.0 mg/kg/injection, schedule: Q01DX009 (ip), vehicle: saline with Tween-80
[4] = endpoint: mean survival time, dose: 100.0 mg/kg/injection, schedule: Q04DX003 (ip), vehicle: saline with Tween-80
[5] = endpoint: mean survival time, dose: 200.0 mg/kg/injection, schedule: Q04DX003 (ip), vehicle: saline with Tween-80
[6] = endpoint: mean survival time, dose: 400.0 mg/kg/injection, schedule: Q04DX003 (ip), vehicle: saline with Tween-80
[7] = endpoint: mean survival time, dose: 25.0 mg/kg/injection, schedule: Q04DX003 (ip), vehicle: saline with Tween-80
[8] = endpoint: mean survival time, dose: 50.0 mg/kg/injection, schedule: Q04DX003 (ip), vehicle: saline with Tween-80
[9] = endpoint: mean survival time, dose: 12.5 mg/kg/injection, schedule: Q01DX005 (ip), vehicle: distilled water + Tween-80
[10] = endpoint: mean survival time, dose: 25.0 mg/kg/injection, schedule: Q01DX005 (ip), vehicle: distilled water + Tween-80
[11] = endpoint: mean survival time, dose: 50.0 mg/kg/injection, schedule: Q01DX005 (ip), vehicle: distilled water + Tween-80
[12] = endpoint: mean survival time, dose: 100.0 mg/kg/injection, schedule: Q01DX005 (ip), vehicle: distilled water + Tween-80
[13] = endpoint: mean survival time, dose: 200.0 mg/kg/injection, schedule: Q01DX005 (ip), vehicle: distilled water + Tween-80

For `CCC1(O)C(=O)OCc2c1cc1n(c2=O)Cc2cc3ccc(O)cc3nc2-1` (centres undefined), the T/C (endpoint: median survival time, dose: 3.75 mg/kg/injection, schedule: Q04DX002 (ip), vehicle: Klucel (hydroxypropylcellulose) (HPC)) was 121 % of control, the T/C (endpoint: median survival time, dose: 7.5 mg/kg/injection, schedule: Q04DX002 (ip), vehicle: Klucel (hydroxypropylcellulose) (HPC)) was 272 % of control and the T/C (endpoint: median survival time, dose: 15.0 mg/kg/injection, schedule: Q04DX002 (ip), vehicle: Klucel (hydroxypropylcellulose) (HPC)) was 190 % of control. The T/C (endpoint: median survival time, dose: 30.0 mg/kg/injection, schedule: Q04DX002 (ip), vehicle: Klucel (hydroxypropylcellulose) (HPC)) was 152 % of control and the T/C (endpoint: median survival time, dose: 60.0 mg/kg/injection, schedule: Q04DX002 (ip), vehicle: Klucel (hydroxypropylcellulose) (HPC)) was 154 % of control and 357 % of control.
With `Cc1ccc(NC(=O)c2ccc(C(=O)Nc3ccc(C)c(Cl)c3)cc2)cc1Cl` the T/C (endpoint: mean survival time, dose: 100.0 mg/kg/injection, schedule: Q01DX001 (ip), vehicle: saline) was 89 % of control, the T/C (endpoint: mean survival time, dose: 200.0 mg/kg/injection, schedule: Q01DX001 (ip), vehicle: saline) was 98 % of control and the T/C (endpoint: mean survival time, dose: 400.0 mg/kg/injection, schedule: Q01DX001 (ip), vehicle: saline) was 89 % of control.
With `O=C(CNC(=O)Nc1cccc([N+](=O)[O-])c1)N/N=C/c1c(O)ccc2ccccc12` the T/C [1] was 88 % of control, the T/C [2] was 92 % of control and the T/C [3] was 95 % of control.
With `Nc1nc(NCCc2ccccc2)c2ncn(C3OC(CO)C(O)C3O)c2n1` (centres undefined) the T/C (endpoint: mean survival time, dose: 12.5 mg/kg/injection, schedule: Q01DX005 (ip), vehicle: other) was 102 % of control, the T/C (endpoint: mean survival time, dose: 25.0 mg/kg/injection, schedule: Q01DX005 (ip), vehicle: other) was 98 % of control and the T/C (endpoint: mean survival time, dose: 50.0 mg/kg/injection, schedule: Q01DX005 (ip), vehicle: other) was 104 % of control. The T/C (endpoint: mean survival time, dose: 100.0 mg/kg/injection, schedule: Q01DX005 (ip), vehicle: other) was 108 % of control.
With `CCOc1cc2c(cc1C(C)c1ccc(OC)cc1)OCO2` (centres undefined) the T/C (endpoint: median survival time, dose: 12.5 mg/kg/injection, schedule: Q01DX009 (ip), vehicle: distilled water + alcohol) was 103 % of control, the T/C (endpoint: median survival time, dose: 25.0 mg/kg/injection, schedule: Q01DX009 (ip), vehicle: distilled water + alcohol) was 93 % of control and 104 % of control and the T/C (endpoint: median survival time, dose: 50.0 mg/kg/injection, schedule: Q01DX009 (ip), vehicle: distilled water + alcohol) was 115 % of control and 98 % of control. The T/C (endpoint: median survival time, dose: 100.0 mg/kg/injection, schedule: Q01DX009 (ip), vehicle: distilled water + alcohol) was 98 % of control and 108 % of control and the T/C (endpoint: median survival time, dose: 200.0 mg/kg/injection, schedule: Q01DX009 (ip), vehicle: distilled water + alcohol) was 111 % of control.
For `Cc1ccc(SCc2c(COc3ccc(Cl)cc3)sc3ccc(Cl)cc23)cc1`, the T/C [4] was 92 % of control, the T/C [5] was 92 % of control and the T/C [6] was 94 % of control.
For `C=C1C(=O)OC2CC1C(OC(C)=O)CC1(C)OC1CCC1(C)OC1CCC2(C)O` (centres undefined), the T/C (endpoint: mean survival time, dose: 6.25 mg/kg/injection, schedule: Q01DX009 (ip), vehicle: Klucel (hydroxypropylcellulose) (HPC)) was 102 % of control, the T/C (endpoint: mean survival time, dose: 12.5 mg/kg/injection, schedule: Q01DX009 (ip), vehicle: Klucel (hydroxypropylcellulose) (HPC)) was 107 % of control and the T/C (endpoint: mean survival time, dose: 25.0 mg/kg/injection, schedule: Q01DX009 (ip), vehicle: Klucel (hydroxypropylcellulose) (HPC)) was 105 % of control.
`O=P1(NCCCl)OC(c2ccccc2)=CCN1CCCl` (centres undefined) was tested, and the T/C (endpoint: median survival time, dose: 31.25 mg/kg/injection, schedule: Q01DX001 (ip), vehicle: distilled water + Tween-80) was 102 % of control, the T/C (endpoint: median survival time, dose: 62.5 mg/kg/injection, schedule: Q01DX001 (ip), vehicle: distilled water + Tween-80) was 97 % of control and the T/C (endpoint: median survival time, dose: 125.0 mg/kg/injection, schedule: Q01DX001 (ip), vehicle: distilled water + Tween-80) was 97 % of control. The T/C (endpoint: median survival time, dose: 250.0 mg/kg/injection, schedule: Q01DX001 (ip), vehicle: distilled water + Tween-80) was 101 % of control and the T/C (endpoint: median survival time, dose: 500.0 mg/kg/injection, schedule: Q01DX001 (ip), vehicle: distilled water + Tween-80) was 93 % of control.
`CC(=O)Nc1sc([N+](=O)[O-])cc1[N+](=O)[O-]` was tested, and the T/C [7] was 101 % of control, the T/C [8] was 108 % of control and the T/C [4] was 91 % of control and 101 % of control.
With `CCCN(C)C(=O)N(CCCl)N=O` the T/C (endpoint: mean survival time, dose: 39.0 mg/kg/injection, schedule: Q01DX001 (ip), vehicle: other) was 306 % of control, the T/C (endpoint: mean survival time, dose: 62.5 mg/kg/injection, schedule: Q01DX001 (ip), vehicle: other) was 197 % of control and the T/C (endpoint: mean survival time, dose: 78.0 mg/kg/injection, schedule: Q01DX001 (ip), vehicle: other) was 448 % of control. The T/C (endpoint: mean survival time, dose: 125.0 mg/kg/injection, schedule: Q01DX001 (ip), vehicle: other) was 320 % of control and the T/C (endpoint: mean survival time, dose: 250.0 mg/kg/injection, schedule: Q01DX001 (ip), vehicle: other) was 102 % of control.
`Nc1ncnc2c1c1c(=O)[nH]c(=O)[nH]c1n2C1OC(CO)C(O)C1O` (centres undefined) was tested, and the T/C [9] was 111 % of control, the T/C [10] was 116 % of control and the T/C [11] was 119 % of control. For the same molecule, the T/C [12] was 158 % of control, the T/C [13] was 172 % of control and the T/C (endpoint: mean survival time, dose: 400.0 mg/kg/injection, schedule: Q01DX005 (ip), vehicle: distilled water + Tween-80) was 208 % of control. For the same molecule, the T/C (endpoint: median survival time, dose: 25.0 mg/kg/injection, schedule: Q01DX009 (ip), vehicle: distilled water + Tween-80) was 114 % of control, the T/C (endpoint: median survival time, dose: 50.0 mg/kg/injection, schedule: Q01DX009 (ip), vehicle: distilled water + Tween-80) was 115 % of control and 109 % of control and the T/C (endpoint: median survival time, dose: 100.0 mg/kg/injection, schedule: Q01DX009 (ip), vehicle: distilled water + Tween-80) was 121 % of control and 110 % of control. For the same molecule, the T/C (endpoint: median survival time, dose: 400.0 mg/kg/injection, schedule: Q01DX009 (ip), vehicle: distilled water + Tween-80) was 105 % of control.
For `Cn1c(=O)c2c(nc(NN)n2C)n(C)c1=O`, the T/C [9] was 100 % of control, the T/C [10] was 100 % of control and the T/C [11] was 103 % of control. For the same molecule, the T/C [12] was 89 % of control and the T/C [13] was 101 % of control.
In the case of `Cc1cccc(/C=N\N=C\c2cccc(C)n2)n1`, the T/C [2] is reported as 96 % of control, the T/C [4] is reported as 95 % of control and the T/C [3] is reported as 90 % of control. For the same molecule, the T/C [5] was 91 % of control, the T/C (endpoint: mean survival time, dose: 400.0 mg/kg/injection, schedule: Q01DX009 (ip), vehicle: saline with Tween-80) was 98 % of control and the T/C [6] was 107 % of control.
With `NS(=O)(=O)c1ccc(NC(=O)Oc2ccc([N+](=O)[O-])cc2)cc1` the T/C (endpoint: mean survival time, dose: 100.0 mg/kg/injection, schedule: Q01DX001 (ip), vehicle: saline with Tween-80) was 93 % of control, the T/C (endpoint: mean survival time, dose: 200.0 mg/kg/injection, schedule: Q01DX001 (ip), vehicle: saline with Tween-80) was 93 % of control and the T/C (endpoint: mean survival time, dose: 400.0 mg/kg/injection, schedule: Q01DX001 (ip), vehicle: saline with Tween-80) was 101 % of control.
For `C=CC1CN(CCc2cc3ccccc3[nH]2)CCC1CC(=O)OCC` (centres undefined), the T/C [4] was 97 % of control, the T/C [5] was 101 % of control and the T/C [6] was 94 % of control.
With `CCCCNC(=O)C1CC2c3cccc4c3C(CN4)CC2N(C)C1` (centres undefined) the T/C [8] was 94 % of control and the T/C [4] was 88 % of control.
`O=CC(O)C(Cl)C(Cl)C(O)CCl` (centres undefined) was tested, and the T/C (endpoint: mean survival time, dose: 100.0 mg/kg/injection, schedule: Q04DX003 (ip), vehicle: saline) was 115 % of control, the T/C (endpoint: mean survival time, dose: 200.0 mg/kg/injection, schedule: Q04DX003 (ip), vehicle: saline) was 100 % of control and the T/C (endpoint: mean survival time, dose: 400.0 mg/kg/injection, schedule: Q04DX003 (ip), vehicle: saline) was 98 % of control.
`NNc1nc2c(=O)[nH]cnc2n1C1OC(CO)C(O)C1O` (centres undefined) was tested, and the T/C [9] was 98 % of control, the T/C [10] was 98 % of control and the T/C [11] was 100 % of control. The T/C [12] was 107 % of control and the T/C [13] was 104 % of control.
`CC1C=C(Br)C(=O)C(n2cnc3c(=O)n(C)c(=O)n(C)c32)O1` (centres undefined) was tested, and the T/C [9] was 100 % of control and the T/C [10] was 97 % of control.
With `CCOC(=O)NCC(Cl)(Cl)Cl` the T/C (endpoint: mean survival time, dose: 37.5 mg/kg/injection, schedule: Q01DX009 (ip), vehicle: saline with Tween-80) was 98 % of control, the T/C (endpoint: mean survival time, dose: 75.0 mg/kg/injection, schedule: Q01DX009 (ip), vehicle: saline with Tween-80) was 98 % of control and the T/C (endpoint: mean survival time, dose: 150.0 mg/kg/injection, schedule: Q01DX009 (ip), vehicle: saline with Tween-80) was 102 % of control.
`CC(=O)c1ccco1` was tested, and the T/C (endpoint: mean survival time, dose: 12.5 mg/kg/injection, schedule: Q01DX009 (ip), vehicle: saline with Tween-80) was 96 % of control, the T/C (endpoint: mean survival time, dose: 25.0 mg/kg/injection, schedule: Q01DX009 (ip), vehicle: saline with Tween-80) was 95 % of control and the T/C [7] was 104 % of control. For the same molecule, the T/C [1] was 98 % of control and the T/C [8] was 122 % of control.
`CC(/C=C/c1ccccc1)=Nc1ccccc1` was tested, and the T/C [4] was 106 % of control, the T/C [5] was 103 % of control and the T/C [6] was 106 % of control. For the same molecule, the T/C (endpoint: median survival time, dose: 12.5 mg/kg/injection, schedule: Q01DX009 (ip), vehicle: saline with Tween-80) was 108 % of control, the T/C (endpoint: median survival time, dose: 25.0 mg/kg/injection, schedule: Q01DX009 (ip), vehicle: saline with Tween-80) was 98 % of control and the T/C (endpoint: median survival time, dose: 50.0 mg/kg/injection, schedule: Q01DX009 (ip), vehicle: saline with Tween-80) was 111 % of control. The T/C (endpoint: median survival time, dose: 100.0 mg/kg/injection, schedule: Q01DX009 (ip), vehicle: saline with Tween-80) was 107 % of control and the T/C (endpoint: median survival time, dose: 200.0 mg/kg/injection, schedule: Q01DX009 (ip), vehicle: saline with Tween-80) was 104 % of control.
